The values that follow come from patent US5639775A, “4-[4'-piperodinyl or 3'-pirrolidinyl] substituted imidazoles as H3 -receptor antagonists and therapeutic uses thereof” (The University of Toledo, priority 1994, dated 1997).

The IC50 is the concentration that gives 50% inhibition. By Ki is commonly meant the dissociation constant of the complex between target and ligand, obtained from inhibition or displacement.

Like-named read-outs stand apart in the source and are kept apart here. Bounds are passed on as bounds.

The test system of one data set is male albino CF-1 mice. In words: behavioral effects: sleep induced by (R)α-methylhistamine in mice. It is filed as in vivo. As for the experimental part:
The overall strategy to show central nervous system antagonist activity was to challenge effects of the agonist (R)α-methylhistamine. Therefore, the first objective was to establish a dose response curve for behavioral effects of (R)α-methylhistamine. […] Saline or (R)α-methylhistamine in saline was injected i.p. in a volume≤0.4 ml. […] Animals were scored for the presence (1) or absence (0) of the behavior and the results were reported as the accumulated score for a 30 minute period (maximum score=9).
To assess the effects of antagonists, they were administered with the (R)α-methylhistamine in saline.

Data set [1] deals with Glycine. Kind of data set: NOVASCREEN receptor selectivity assay (excitatory amino acids). It is filed as binding. The conditions noted are these: 10^-5 M. The text has this:
(§1) Bolded values represent inhibition of fifty percent or greater.

Data set [2] has as its system Glycine. Kind of data set: NOVASCREEN receptor selectivity assay (inhibitory amino acids). It is filed as binding. Conditions: 10^-5 M.
Text: as §1

Data set [3] is classed as binding. The conditions noted are these: 10^-5 M; w-Conotoxin reference.
The test system of data set [4] is H3 receptors in the cortex. In words: blood-brain barrier penetration by ex vivo binding of [3H]-Nα-methylhistamine to cortical homogenate of injected rats. In kind it is in vivo, rat. The protocol:
Blood-brain barrier penetration in rats was assessed by an ex vivo binding procedure. Young adult male Long-Evans rats were injected i.p. with saline or H3 antagonists in saline. At various times after injection animals were sacrificed, the cortex was removed, homogenized in 50 mM Na/K-phosphate buffer, pH 7.4, and the binding of 1 nM [^3 H]-N^[…] -methylhistamine was measured using 400 μg protein of the homogenate. Nonspecific binding was accounted for by the inclusion of excess thioperamide in some samples. Under these conditions, the binding was approximately 90% specific.

Another data set concerns Calcium. Kind of data set: NOVASCREEN receptor selectivity assay (channel proteins, Nifedipine reference). In kind it is binding. Conditions: 10^-5 M.
Text: as §1

Data set [5] can be described thus: toxicity observed in all testing to date. It is filed as in vivo. The conditions noted are these: even at high doses.
The next data set deals with T1, histamine H3 receptor (Rattus norvegicus, UniProt Q9QYN8).
T1 construct: from tissue
T1 sequence (Q9QYN8 whole entry): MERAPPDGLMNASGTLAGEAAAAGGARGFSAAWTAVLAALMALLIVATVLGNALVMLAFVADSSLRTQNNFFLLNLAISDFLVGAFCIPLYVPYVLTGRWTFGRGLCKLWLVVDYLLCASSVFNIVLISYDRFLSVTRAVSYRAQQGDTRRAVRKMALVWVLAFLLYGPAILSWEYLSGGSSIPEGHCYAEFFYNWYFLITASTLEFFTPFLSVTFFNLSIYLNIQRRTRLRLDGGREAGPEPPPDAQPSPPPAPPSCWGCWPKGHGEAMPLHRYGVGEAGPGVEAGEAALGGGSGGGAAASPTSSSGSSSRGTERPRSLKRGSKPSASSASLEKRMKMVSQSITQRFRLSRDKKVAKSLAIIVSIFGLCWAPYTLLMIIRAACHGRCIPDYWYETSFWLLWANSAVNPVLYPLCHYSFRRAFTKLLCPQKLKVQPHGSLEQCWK
In words: inhibition of binding of [3H]-N-alpha-methylhistamine to rat brain membranes. Conditions: for IC50: rat brain membranes, 3HNα-methylhistamine as radioligand. The protocol: A series of compounds were prepared and tested for their histamine H3 receptor antagonist activity. The antagonist activity of the compounds was detected by observing inhibition of (^3 H)-N-(alpha)methylhistamine activity on rat brain membranes.
The various compounds were tested for the ability to bind to the histamine H3 receptor. A binding assay in a rat brain membrane preparation, based on inhibition of binding of [^3 H]-N-alpha-methylhistamine using excess unlabeled alpha-methylhistamine to account for nonspecifc binding, was developed.

In the next data set the target is Kainate. Conditions: reference compound; cited from earlier work.
Data set [6] deals with Glycine. The conditions noted are these: read-out: Reference Ki; reference compound; inhibitory; cited from earlier work.
The next data set relates to rats. Conditions: cited from earlier work.
The test system of a further data set is dogs. Conditions: high dose, repeated dose; cited from earlier work.
The mark [7] stands for this setting: 2, 5, and 10 mg/kg i.p., 15 min after injection.

For `C[C@@H](N)Cc1c[nH]cn1` [(R)α-methylhistamine, reference compound], in the data set with male albino CF-1 mice (i.p., one hour after injection, also evident at 30 minutes), the effect on sleeping entry is listed as “dose-dependent (range of 15 to 35 mg/kg) increase in sleeping”.
Regarding `O=C(CCCCC1CCCCC1)N1CCC(c2c[nH]cn2)CC1` [Compound 1, 4-(1-Cyclohexylvaleroyl-4-Piperidyl) 1H-Imidazole], the “Initial Percent Inhibition (Average; N = 2)” value in the data set on Glycine [1] came to 1.8%; in the data set on Glycine [2], 17.4%; in data set [3], 1.9%; in the data set on Calcium, 8.1%. The “effect on sleep induced by R(-)-α-methylhistamine” value in the data set on male albino CF-1 mice (25 mg/kg (R)α-methylhistamine) was “inhibited the soporific effect”. In addition, the “effectiveness as an H3-receptor antagonist in vivo” value in the data set with male albino CF-1 mice (in vivo assays) is “effective as an H3 -receptor antagonist”. In addition, the “penetration of the blood-brain barrier” value in data set [4] (50 and 70 mg/kg i.p., one hour after injection) is reported as “penetrates the blood-brain barrier”. The “penetration of the blood-brain barrier compared with thioperamide” value in data set [4] (taking into account the difference in affinity) was “at least as well as thioperamide”. Besides, the toxicity observed result in [5] is “no toxicity”.
`O=C(Cc1ccccc1)N1CCC(c2c[nH]cn2)CC1` [Compound 4]: on histamine H3 receptor (Table I first part, read-out: IC50), the IC50 amounted to 1400 ± 437 nM.
Take `O=C(CC12CC3CC(CC(C3)C1)C2)N1CCC(c2cnc[nH]2)CC1` [Compound 8]: on histamine H3 receptor (Table I second part), the IC50 entry was “inactive”.
Take `O=C(C(C1CCCCC1)C1CCCCC1)N1CCC(c2cnc[nH]2)CC1` [Compound 9]: the IC50 result on histamine H3 receptor (Table I second part) is “inactive”.
Turning to `CC(C)(C)C(=O)N1CCC(c2c[nH]cn2)CC1` [Compound 14], at histamine H3 receptor (Table I second part), the IC50 result is “inactive”.
`O=C(C1CCCCC1)N1CCC(c2c[nH]cn2)CC1` [Compound 41]: the 50% inhibitory concentration (IC50) entry on histamine H3 receptor (Table I first part) was “inactive”.
As to `Cn1cnc(C2CCN(C(=O)c3ccccc3)CC2)c1` [Compound 42], the 50% inhibitory concentration (IC50) result at histamine H3 receptor (Table I first part) is “inactive”.
The same measure, in the same setting: under `O=C(c1ccccc1)N1CCC(c2cn(C(=O)c3ccccc3)cn2)CC1` [Compound 43] stands “inactive”; under `CC(C)(C)C(=O)N1CCC(c2cn(C(=O)C(C)(C)C)cn2)CC1` [Compound 44], “inactive”; under `CC(C)(C)OC(=O)N1CCC(c2cn(C(=O)OC(C)(C)C)cn2)CC1` [Compound 45], “inactive”.
For `O=C(c1ccccc1)N1CCC(c2cn(Cc3ccccc3)cn2)CC1` [Compound 46], the IC50 result on histamine H3 receptor (Table I first part) is “inactive”.
Turning to `N#CN=C(Oc1ccccc1)N1CCC(c2c[nH]cn2)CC1` [Compound 47], at histamine H3 receptor, the “binding to the H3-receptor (in words)” value is “ineffective”.
In the case of `N#CN=C(NC1CCCCC1)N1CCC(c2c[nH]cn2)CC1` [Compound 48], the “binding to the H3-receptor (in words)” value on histamine H3 receptor is “ineffective”. The IC50 entry at histamine H3 receptor (Table I first part) is “inactive”.
As for `N#CN=C(Nc1ccc(-c2c[nH]cn2)cc1)NC1CCCCC1` [Compound 50], the “binding to the H3-receptor (in words)” value on histamine H3 receptor is “ineffective”. Also, on histamine H3 receptor (Table I second part), the IC50 result was “inactive”.
Consider `C=C(C)[C@H]1CN[C@H](C(=O)O)[C@H]1CC(=O)O` [Kainic Acid], for which, on Kainate, the Ki was 24.9 nM.
On to `O=C1C[C@@H]2OCC=C3CN4CC[C@]56c7ccccc7N1[C@H]5[C@H]2[C@H]3C[C@H]46` [Strychinine Nitrate], for which the inhibition constant Ki at Glycine [6] was 33.5 nM.
Take `S=C(NC1CCCCC1)N1CCC(c2cnc[nH]2)CC1` [Thioperamide, reference compound]: in the data set on rats, the “dose needed in vivo to inhibit histamine release from the brain” value was “relatively high doses are required”. The “effect on sleep induced by R(-)-α-methylhistamine” value in the data set with male albino CF-1 mice (30 mg/kg (R)α-methylhistamine) is on record as “inhibit the soporific effect”. For the same compound, the “behavior with antagonist alone” value in the data set with male albino CF-1 mice (in the absence of the α-methylhistamine H3 receptor agonist) is “very active, exhibiting normal behaviors”. Also, in data set [4] (setting [7]), the “binding of [3H]-Nα-methylhistamine to H3 receptors in the cortex” value is listed as “decreased the binding” and the “penetration of the blood-brain barrier” value is listed as “able to penetrate the blood-brain barrier”.
Take `O=C(CCCCC1CCCCC1)N1CCC(c2c[nH]cn2)CC1` [compound 2016]: the “effect on soporific effect of R(-)-alphamethylhistamine” value with male albino CF-1 mice (mice, both drugs administered peripherally) is given as “reverses the soporific effect”.
As to `C/N=C(\S)NCCSCc1[nH]cnc1C` [metiamide], in the data set with dogs, the “proportion of dogs that died acutely with pulmonary edema and pleural effusion” value is given as less than 10%.
